Source: patent US8802597B2, “Herbicidal pyrimidines” (E I du Pont de Nemours and Company, priority 2003, dated 2014)

Key:
Format in all cases: in vivo
[1] = system: blackgrass (Alopecurus myosuroides); experiment: Test B postemergence; settings: for Blackgrass plant response rating: 125 g ai/ha, scale 0 to 100 (0 no effect, 100 complete control); for Plant response rating, Blackgrass: 500 g ai/ha, scale 0 to 100
Summary of the method: (§1)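 Visual injury scored 0 (no effect) to 100 (complete control) versus untreated controls after 13 to 15 days in greenhouse. Treatments were pre- or postemergence sprays of surfactant-containing solvent formulations; postemergence plants at 1- to 4-leaf stage, 2 to 18 cm.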

wild oat (Avena fatua) = experiment: Test B postemergence; settings: for Oat, Wild plant response rating: 125 g ai/ha, scale 0 to 100 (0 no effect, 100 complete control); for Plant response rating, Oat, Wild: 500 g ai/ha, scale 0 to 100
Summary of the method: as §1

[2] = system: cocklebur (Xanthium strumarium); experiment: Test B pre/postemergence
Summary of the method: as §1

[3] = system: crabgrass (Digitaria sanguinalis); experiment: Test B pre/postemergence
Summary of the method: as §1

[4] = system: giant foxtail (Setaria faberii); experiment: Test B pre/postemergence
Summary of the method: as §1

[5] = system: lambsquarters (Chenopodium album); experiment: Test B pre/postemergence
Summary of the method: as §1

[6] = system: wheat (Triticum aestivum); experiment: Test B pre/postemergence
Summary of the method: as §1

[7] = system: pigweed (Amaranthus retroflexus); experiment: Test B pre/postemergence
Summary of the method: as §1

[8] = system: Surinam grass (Brachiaria decumbens); experiment: Test B pre/postemergence
Summary of the method: as §1

[9] = system: morningglory (Ipomoea coccinea); experiment: Test B pre/postemergence
Summary of the method: as §1

[10] = system: velvetleaf (Abutilon theophrasti); experiment: Test B pre/postemergence
Summary of the method: as §1

[11] = system: barnyardgrass (Echinochloa crus-galli); experiment: Test B pre/postemergence
Summary of the method: as §1

corn (Zea mays) = experiment: Test B pre/postemergence
Summary of the method: as §1

[12] = system: barnyardgrass (Echinochloa crus-galli); experiment: Test B flooded paddy test; settings: Flood, 1000 g ai/ha; scale 0 (no effect) to 100 (complete control)
Summary of the method: (§2)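 Plants were grown to the 2-leaf stage before treatment, then kept in a greenhouse for 13 to 15 days. Injury was rated visually against untreated controls on a 0 to 100 scale, where 0 is no effect and 100 is complete control.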

[13] = system: umbrella sedge (Cyperus difformis); experiment: Test B flooded paddy test; settings: Flood, 1000 g ai/ha; scale 0 to 100
Summary of the method: as §2

[14] = system: duck salad (Heteranthera limosa); experiment: Test B flooded paddy test; settings: Flood, 1000 g ai/ha; scale 0 to 100
Summary of the method: as §2

rice (Oryza sativa) = experiment: Test B flooded paddy test; settings: Flood, 1000 g ai/ha; scale 0 to 100
Summary of the method: as §2

[15] = Postemergence, 125 g ai/ha, scale 0 to 100 (0 no effect, 100 complete control)
[16] = Postemergence, 500 g ai/ha, scale 0 to 100
[17] = Preemergence, 125 g ai/ha, scale 0 to 100 (0 no effect, 100 complete control)
[18] = Preemergence, 500 g ai/ha, scale 0 to 100 (0 no effect, 100 complete control)

CCOC(=O)c1nc(-c2ccc(Cl)cc2)nc(N)c1Br [Compound 37]
Blackgrass plant response rating [1]: 40 | Plant response rating, Blackgrass [1]: 60 | Oat, Wild plant response rating (wild oat (Avena fatua)): 0 | Plant response rating, Oat, Wild (wild oat (Avena fatua)): 0 | Cocklebur plant response rating [2, 15]: 100 | Plant response rating, Cocklebur [2, 16]: 100 | Plant response rating, Cocklebur [2, 17]: 20 | Cocklebur plant response rating [2, 18]: 80 | Crabgrass plant response rating [3, 15]: 60 | Plant response rating, Crabgrass [3, 16]: 80 | Plant response rating, Crabgrass [3, 17]: 50 | Crabgrass plant response rating [3, 18]: 90 | Foxtail, Giant plant response rating [4, 15]: 10 | Plant response rating, Foxtail, Giant [4, 16]: 60 | Plant response rating, Foxtail, Giant [4, 17]: 10 | Foxtail, Giant plant response rating [4, 18]: 60 | Lambsquarters plant response rating [5, 15]: 100 | Plant response rating, Lambsquarters [5, 16]: 100 | Plant response rating, Lambsquarters [5, 17]: 100 | Lambsquarters plant response rating [5, 18]: 100 | Wheat plant response rating [6, 15]: 0 | Plant response rating, Wheat [6, 16]: 60 | Plant response rating, Wheat [6, 17]: 30 | Plant response rating, Wheat [6, 18]: 60 | Pigweed plant response rating [7, 15]: 100 | Plant response rating, Pigweed [7, 16]: 100 | Plant response rating, Pigweed [7, 17]: 100 | Pigweed plant response rating [7, 18]: 100 | Surinam Grass plant response rating [8, 15]: 20 | Plant response rating, Surinam Grass [8, 16]: 70 | Surinam Grass plant response rating [8, 18]: 40 | Morningglory plant response rating [9, 15]: 90 | Plant response rating, Morningglory [9, 16]: 100 | Plant response rating, Morningglory [9, 17]: 10 | Morningglory plant response rating [9, 18]: 50 | Velvetleaf plant response rating [10, 15]: 80 | Plant response rating, Velvetleaf [10, 16]: 100 | Plant response rating, Velvetleaf [10, 17]: 40 | Velvetleaf plant response rating [10, 18]: 80 | Barnyardgrass plant response rating [11, 15]: 0 | Plant response rating, Barnyardgrass [11, 16]: 90 | Plant response rating, Barnyardgrass [11, 17]: 10 | Barnyardgrass plant response rating [11, 18]: 40 | Corn plant response rating (corn (Zea mays); [15]): 0 | Plant response rating, Corn (corn (Zea mays); [16]): 70 | Plant response rating, Corn (corn (Zea mays); [17]): 0 | Corn plant response rating (corn (Zea mays); [18]): 10 | Plant response rating, Barnyardgrass [12]: 20 | Plant response rating, Sedge, Umbrella [13]: 90 | Plant response rating, Ducksalad [14]: 100 | Plant response rating, Rice (rice (Oryza sativa)): 0

CCOC(=O)c1nc(C2CC2)nc(N=CN(C)C)c1Br [Compound 40]
Blackgrass plant response rating [1]: 50 | Plant response rating, Blackgrass [1]: 60 | Oat, Wild plant response rating (wild oat (Avena fatua)): 40 | Plant response rating, Oat, Wild (wild oat (Avena fatua)): 60 | Cocklebur plant response rating [2, 15]: 0 | Plant response rating, Cocklebur [2, 16]: 90 | Plant response rating, Cocklebur [2, 17]: 90 | Cocklebur plant response rating [2, 18]: 100 | Crabgrass plant response rating [3, 15]: 0 | Plant response rating, Crabgrass [3, 16]: 80 | Plant response rating, Crabgrass [3, 17]: 60 | Crabgrass plant response rating [3, 18]: 80 | Foxtail, Giant plant response rating [4, 15]: 0 | Plant response rating, Foxtail, Giant [4, 16]: 60 | Plant response rating, Foxtail, Giant [4, 17]: 20 | Foxtail, Giant plant response rating [4, 18]: 80 | Lambsquarters plant response rating [5, 15]: 0 | Plant response rating, Lambsquarters [5, 16]: 100 | Plant response rating, Lambsquarters [5, 17]: 100 | Lambsquarters plant response rating [5, 18]: 100 | Wheat plant response rating [6, 15]: 50 | Plant response rating, Wheat [6, 16]: 60 | Plant response rating, Wheat [6, 17]: 40 | Plant response rating, Wheat [6, 18]: 70 | Pigweed plant response rating [7, 15]: 0 | Plant response rating, Pigweed [7, 16]: 100 | Plant response rating, Pigweed [7, 17]: 90 | Pigweed plant response rating [7, 18]: 100 | Surinam Grass plant response rating [8, 15]: 0 | Plant response rating, Surinam Grass [8, 16]: 70 | Plant response rating, Surinam Grass [8, 17]: 50 | Surinam Grass plant response rating [8, 18]: 70 | Morningglory plant response rating [9, 15]: 0 | Plant response rating, Morningglory [9, 16]: 100 | Plant response rating, Morningglory [9, 17]: 90 | Morningglory plant response rating [9, 18]: 100 | Velvetleaf plant response rating [10, 15]: 0 | Plant response rating, Velvetleaf [10, 16]: 90 | Plant response rating, Velvetleaf [10, 17]: 90 | Velvetleaf plant response rating [10, 18]: 90 | Barnyardgrass plant response rating [11, 15]: 0 | Plant response rating, Barnyardgrass [11, 16]: 90 | Plant response rating, Barnyardgrass [11, 17]: 50 | Barnyardgrass plant response rating [11, 18]: 90 | Corn plant response rating (corn (Zea mays); [15]): 0 | Plant response rating, Corn (corn (Zea mays); [16]): 60 | Plant response rating, Corn (corn (Zea mays); [17]): 0 | Corn plant response rating (corn (Zea mays); [18]): 50 | Plant response rating, Barnyardgrass [12]: 70 | Plant response rating, Sedge, Umbrella [13]: 70 | Plant response rating, Ducksalad [14]: 80 | Plant response rating, Rice (rice (Oryza sativa)): 60
